Test results as given in US7166705B2 (Schering Corporation, priority 1999, dated 2007).

Experiments:
SP9144 [1] = biological target: T1, SP9144 (Homo sapiens, UniProt Q9H3N8); assay: FLIPR intracellular Ca2+ assay, HEK-293-EBNA cells transfected with pCR3.1-SP9144; type: cell-based; conditions: for rank order of potency for activation of SP9144: transfected HEK-293-EBNA cells; for activation of SP9144 (change in intracellular Ca++, Fluo3 fluorescence): HEK-293-EBNA cells transfected with pCR3.1-SP9144, drugs 1×10^−4 M to 1×10^−9 M
T1 construct: expressed in transfected cells; host or cells: HEK-293-EBNA / HEK-293 cells, transient transfection with pCR3.1-SP9144
T1 sequence (Q9H3N8 whole entry): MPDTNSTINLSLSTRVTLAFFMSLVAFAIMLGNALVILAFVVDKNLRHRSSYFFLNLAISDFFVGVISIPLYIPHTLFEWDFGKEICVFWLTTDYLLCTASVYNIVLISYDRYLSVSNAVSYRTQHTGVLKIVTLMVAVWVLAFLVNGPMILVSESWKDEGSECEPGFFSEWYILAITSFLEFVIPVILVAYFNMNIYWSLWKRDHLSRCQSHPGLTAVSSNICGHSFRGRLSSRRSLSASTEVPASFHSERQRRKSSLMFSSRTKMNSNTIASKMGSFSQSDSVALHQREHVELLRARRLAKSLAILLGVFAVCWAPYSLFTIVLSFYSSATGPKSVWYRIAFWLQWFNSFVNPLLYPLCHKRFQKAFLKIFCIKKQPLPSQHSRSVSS
Experimental: (§1) 24 hours after transfection, cells were harvested and plated at 25,000 cells/well in clear bottom, black walled 96 well plates precoated with poly-D-lysine (Beckton-Dickenson) and cultured overnight in DMEM/10% FBS. For the assay, growth media was removed and replaced with 50 μl/well dye loading medium containing DMEM, 10% FBS, 20 mM HEPES pH 7.4, 2.5 mM probenecid (Sigma), […] Fluo3-AM (Sigma) (dissolved in 10% pluronic acid in DMSO). After 1 hr. at 37° C., the cell plates were washed 4 times with 250 μl Hanks Balanced Salt Solution (HBSS) lacking phenol red and containing 20 mM HEPES, 2.5 mM probenecid, and 0.1% BSA (wash buffer). A final volume of 100 μl/well of wash buffer was added to the plates, and the plates were placed into a Fluorescent Imaging Plate Reader (FLIPR, Molecular Devices) equilibrated to 37° C. […] Fluorescence was monitored once per second for 1 minute, and every 6 seconds for 2 minutes thereafter. After a 10 sec baseline measurement was established, drugs at 3× final concentration (1×10^−4 M to 1×10^−9 M) were added in a volume of 50 μl while the fluorescence continued to be monitored. Values extracted for data analysis represented the maximal fluorescence value minus the minimal fluorescence value detected following the drug addition. Drug stock solutions were initially dissolved in water (or DMSO) and diluted to 3× final concentration using wash buffer.

SP9144 [2] = biological target: T1, SP9144; assay: [3H]histamine binding assay (saturation and competition), membranes of HEK-293 cells transfected with SP9144; conditions: for rank order of potency for blocking [3H]-histamine binding: competition with 18 nM [3H]histamine, 70 μg membrane protein; for block of [3H]-histamine binding: at concentrations of 10 μM
Experimental: (§2) Membrane preparation: HEK-293 cells transfected with SP9144 as described above were harvested by incubating in 5 mM EDTA/phosphate-buffered saline followed by repeated pipetting. The cells were centrifuged 5 min at 1000×g. The EDTA/PBS was decanted and an equal volume of ice-cold 50 mM Tris-HCl, pH 7.5, was added and cells were broken up with a Polytron (PT10 tip, setting 5, 30 sec). Nuclei and unbroken cells were sedimented at 1000×g for 10 min and then the supernatant was centrifuged at 50,000×g for 10 min. The supernatant was decanted, the pellet was resuspended by Polytron, a sample was taken for protein assay (bicinchoninic acid, Pierce), and the tissue was again centrifuged at 50,000×g. Pellets were stored frozen at −20° C.
(§3) Samples were filtered on GF/B filters and washed thrice with 2 ml of cold Tris buffer. Filters were dried in a microwave oven, impregnated with Meltilex wax scintillant, and counted at 45% efficiency. […] Curves were fit to the data with Prism (GraphPad Software) nonlinear least-squares curve-fitting program and Ki values were derived from IC50 values according to Cheng and Prusoff (Cheng, Y. C., and Prusoff, W. H. (1973) Relationship between the inhibition constant (Ki) and the concentration of inhibitor which causes 50 per cent inhibition (IC50) of an enzymatic reaction. Biochem. Pharmacol. 22, 3099–3108).

[3] = system: untransfected HEK-293 cells; assay: [3H]histamine binding to membranes from untransfected HEK-293 cells
Experimental: as §2, §3

mock transfected cells = system: mock transfected cells
Experimental: as §1

SMILES | rank order of potency for activation of SP9144 (SP9144 [1]; FLIPR Ca++ assay) | activation of SP9144 (change in intracellular Ca++, Fluo3 fluorescence) (SP9144 [1]) | rank order of potency for blocking [3H]-histamine binding (SP9144 [2]) | further results
C[C@@H](N)Cc1c[nH]cn1 [(R) α-methylhistamine] | Histamine>Nα-methylhistamine>(R) α-methylhistamine>>(S)α-methylhistamine (inactive) | able to activate SP9144 | imetit>clobenpropit>histamine>impromidine>Na-methylhistamine>burimamide>(R)-a-methylhistamine>thioperimide>>(S)-a-methylhistamine | –
C[C@H](N)Cc1c[nH]cn1 [(S)α-methylhistamine] | Histamine>Nα-methylhistamine>(R) α-methylhistamine>>(S)α-methylhistamine (inactive) | inactive | imetit>clobenpropit>histamine>impromidine>Na-methylhistamine>burimamide>(R)-a-methylhistamine>thioperimide>>(S)-a-methylhistamine | –
CNCCc1c[nH]cn1 [Nα-methylhistamine] | Histamine>Nα-methylhistamine>(R) α-methylhistamine>>(S)α-methylhistamine (inactive) | able to activate SP9144 | imetit>clobenpropit>histamine>impromidine>Na-methylhistamine>burimamide>(R)-a-methylhistamine>thioperimide>>(S)-a-methylhistamine | –
NCCc1c[nH]cn1 [[^3H]-Histamine] | – | – | – | specific binding of [3H]-histamine to membranes (SP9144 [2]; membranes from HEK-293 cells transfected with SP9144 DNA): bound specifically; specific binding of [3H]-histamine to membranes [3]: not to membranes from untransfected HEK-293 cells
CNC(=S)NCCCCc1cnc[nH]1 [buramimide] | clobenpropit>imetit>impromidine>buramimide | able to activate SP9144, albeit with reduced efficacy | imetit>clobenpropit>histamine>impromidine>Na-methylhistamine>burimamide>(R)-a-methylhistamine>thioperimide>>(S)-a-methylhistamine | –
CN(C)CCC(c1ccc(Cl)cc1)c1ccccn1 (centres unmarked) [chlorphenirimine] | – | completely inactive | – | block of [3H]-histamine binding (SP9144 [2]): not able to block
CN/C(=N/CCSCc1nc[nH]c1C)NC#N [cimetidine] | – | completely inactive | – | block of [3H]-histamine binding (SP9144 [2]): not able to block
NC(=NCc1ccc(Cl)cc1)SCCCc1cnc[nH]1 [clobenpropit] | clobenpropit>imetit>impromidine>buramimide | able to activate SP9144, albeit with reduced efficacy | imetit>clobenpropit>histamine>impromidine>Na-methylhistamine>burimamide>(R)-a-methylhistamine>thioperimide>>(S)-a-methylhistamine | –
NCCc1ccc(O)c(O)c1 [dopamine] | – | not by other biogenic amines | – | –
CNC[C@H](O)c1ccc(O)c(O)c1 [epinephrine] | – | not by other biogenic amines | – | –
NCCc1c[nH]cn1 [histamine] | Histamine>Nα-methylhistamine>(R) α-methylhistamine>>(S)α-methylhistamine (inactive) | specifically activated | imetit>clobenpropit>histamine>impromidine>Na-methylhistamine>burimamide>(R)-a-methylhistamine>thioperimide>>(S)-a-methylhistamine | activation by histamine in mock transfected cells (mock transfected cells): not observed
N=C(N)SCCc1cnc[nH]1 [imetit] | clobenpropit>imetit>impromidine>buramimide | able to activate SP9144, albeit with reduced efficacy | imetit>clobenpropit>histamine>impromidine>Na-methylhistamine>burimamide>(R)-a-methylhistamine>thioperimide>>(S)-a-methylhistamine | –
Cc1nc[nH]c1CSCCN=C(N)NCCCc1cnc[nH]1 [impromidine] | clobenpropit>imetit>impromidine>buramimide | able to activate SP9144, albeit with reduced efficacy | imetit>clobenpropit>histamine>impromidine>Na-methylhistamine>burimamide>(R)-a-methylhistamine>thioperimide>>(S)-a-methylhistamine | –
NC[C@H](O)c1ccc(O)c(O)c1 [nor-epinephrine] | – | not by other biogenic amines | – | –
NCCc1c[nH]c2ccc(O)cc12 [serotonin] | – | not by other biogenic amines | – | –
S=C(NC1CCCCC1)N1CCC(c2cnc[nH]2)CC1 [thioperimide] | – | no activation of SP9144 | imetit>clobenpropit>histamine>impromidine>Na-methylhistamine>burimamide>(R)-a-methylhistamine>thioperimide>>(S)-a-methylhistamine | block of the activation of SP9144 by (R)α-methylhistamine (SP9144 [1]; FLIPR Ca++ assay, antagonist mode): could be blocked in a dose dependent manner
